Laboratory results reported in US20140113947A1, “PHARMACEUTICAL CREAM COMPOSITIONS OF OXYMETAZOLINE AND METHODS OF USE” (Allergan, Inc., priority 2011, published 2014).

Tests used:
[1] = In vitro permeation (Hanson Microette Franz Cell), flux across cellulose acetate membrane; format: in vitro ADME
Protocol: An in vitro permeation procedure for oxymetazoline cream was developed using the 0.01 and 0.10% w/w oxymetazoline cream. The in vitro experiments were conducted using Hanson Microette Franz Cell apparatus and 0.01N PBS (pH 7.4) as the receiving medium. Other critical parameters were evaluated such as the type of semi-synthetic membrane, sample timing (time dependent release-permeability profile), method sensitivity, specificity and linearity. Permeation characterization of oxymetazoline cream of different strengths (0.01% w/w, 0.05% w/w, 0.10% w/w and 0.15% w/w) was based on flux study across two different artificial membranes (cellulose acetate and polysulfone). The concentration of oxymetazoline which permeated through the membranes was measured using an HPLC assay.

[2] = In vitro permeation (Hanson Microette Franz Cell), flux across polysulfone membrane; format: in vitro ADME
Protocol: An in vitro permeation procedure for oxymetazoline cream was developed using the 0.01 and 0.10% w/w oxymetazoline cream. The in vitro experiments were conducted using Hanson Microette Franz Cell apparatus and 0.01N PBS (pH 7.4) as the receiving medium. Other critical parameters were evaluated such as the type of semi-synthetic membrane, sample timing (time dependent release-permeability profile), method sensitivity, specificity and linearity.
Permeation characterization of oxymetazoline cream of different strengths (0.01% w/w, 0.05% w/w, 0.10% w/w and 0.15% w/w) was based on flux study across two different artificial membranes (cellulose acetate and polysulfone). The concentration of oxymetazoline which permeated through the membranes was measured using an HPLC assay.

[3] = concentration range 0.01-0.10% w/w
[4] = creams 0.01-0.15% w/w, dump and die profile

concentration level above which in vitro membrane transport reached saturation [1]: > 0.1 % w/w
Oxymetazoline permeability (AUC0-24h) as a function of concentration [1, 3]: linearly increased
time of peak of oxymetazoline permeation rate after cream application [1, 4]: 0.5 h
concentration level above which in vitro membrane transport reached saturation [2]: > 0.1 % w/w
Oxymetazoline permeability (AUC0-24h) as a function of concentration [2, 3]: linearly increased
time of peak of oxymetazoline permeation rate after cream application [2, 4]: 0.5 h
Structure (SMILES): Cc1cc(C(C)(C)C)c(O)c(C)c1CC1=NCCN1 [oxymetazoline, 3-(4,5-dihydro-1H-imidazol-2-ylmethyl)-2,4-dimethyl-6-tert-butyl-phenol]
